Data published in patent US9163003B2, “4-piperidinyl compounds for use as tankyrase inhibitors” (NOVARTIS AG, priority 2011, dated 2015).
Read-outs that look alike come from different tables or passages of the source.

Tests used:
[1] = target: human tankyrase 1 PARP catalytic domain, TNKS1P (GST-tagged) (Homo sapiens (Human), UniProt O95271); test: TNKS1 autoparsylation (AP) biochemical assay, LC/MS detection of nicotinamide; conditions: 20 nM enzyme, 250 μM NAD+, 60 min room temperature
Procedure: The human tankyrase 1 PARP catalytic domain, TNKS1P, was cloned into a pDONR221 vector using the Invitrogen Gateway Technology. This entry clone was then subcloned into the destination vector pDEST20 to obtain the N-terminal Glutathione S-transferase (GST)-tagged fusion protein.
The autoparsylation activity of the TNKS 1/2 or PARP1/2 enzymes was measured by the liquid chromatography-mass spectrometry (LC/MS) detection of nicotinamide as readout. Compound activity in inhibiting the TNKS and PARP autoparsylation was evaluated by IC50 measurements.

Axin2 protein = test: Cellular ELISA assay for stabilizing the Axin2 protein in SW480 cells; assay type: cell-based; conditions: 24 hrs treatment, read-out: Axin AC50
Procedure: Compound activity in stabilizing the Axin2 protein was measured by Sandwich Enzyme-Linked Immuosorbent (ELISA) assay in the colorectal cell line SW480. 30,000 SW480 cells were seeded per well in 96-well plate and incubated overnight prior to compound treatment. Cells were then treated with compounds in 6-point dilution starting at 10 μM for 24 hrs. Cells were then washed with 100 μL of cold Phosphate Buffer Saline (PBS), and lysed in 125 μl of cold 1× lysis buffer (Cell Signaling Technology, 9803) supplemented with Protease inhibitor (Roche, 11836170) and Phosphatase inhibitors (Sigma, P2850, P5726). For the ELISA assay, anti Axin-2 capture antibody (Strategic Diagnostics) antibody was diluted to a concentration of 1 μg/ml (1:1000) in Carbonate Coating buffer, pH 9.2 (Sigma, C3041-50CAP). 100μ of the diluted anti Axin-2 capture antibody per well was then used to coat the 96-well ELISA plate (Thermo Electron Corp., MicroLite 1 flat bottom plate #7571) overnight at 4° C. Plates were then washed three times with 300 μl/well of wash solution, PBST20 (PBS+0.05% Tween), and blocked with 300 μl/well 1% BSA/PBS (BSA, Millipore Probumin #82-045-1) for 1.5 hours at room temperature while shaking gently. After blocking, plates were then washed three times with 300 μl/well of wash solution. 100 μL of prepared SW480 cell lysate was then added to each well and incubated at room temperature for 2 hours while shaking gently. After washing, 100 μL of Biotinylated anti-Axin2 antibody (CST, 2151) was added to each well and incubated room temperature for 2 hours. 100 μL of Streptavidin-HRP (R&D systems, DY998) diluted 1:200 in 1% BSA/PBS was then added in each well and incubate for 30 mins at R/T in the dark. Signal was detected by Chemiluminescence (Pierce SuperSignal ELISA Femto #3704), and measured on PerkinElmer Wallac 1420 plate reader.

[2] = tested on: Non-small lung cancer ABC-1 cells; test: Cellular proliferation assay, ABC-1 cells (CellTiter-Glo); assay type: cell-based; conditions: 3 days of compound treatment
Procedure: Non-small lung cancer ABC-1 cells were plated at 5000 cells per well in 96-well plates and treated with 8 serial compound dilutions starting from 10 μM as the highest concentration. Viable cells were measured after 3 days of compound treatment using the CellTiter-Glo assay (Promega, G7570). Assay was performed following the manufacture protocol.

Human PARP1 = Human PARP1 (Homo sapiens (Human), UniProt P09874); test: PARP1 autoparsylation biochemical assay, LC/MS detection of nicotinamide; conditions: read-out: PARP1 IC50, 20 nM enzyme, 250 μM NAD+, 60 min room temperature
Human PARP1, sequence (P09874 whole entry): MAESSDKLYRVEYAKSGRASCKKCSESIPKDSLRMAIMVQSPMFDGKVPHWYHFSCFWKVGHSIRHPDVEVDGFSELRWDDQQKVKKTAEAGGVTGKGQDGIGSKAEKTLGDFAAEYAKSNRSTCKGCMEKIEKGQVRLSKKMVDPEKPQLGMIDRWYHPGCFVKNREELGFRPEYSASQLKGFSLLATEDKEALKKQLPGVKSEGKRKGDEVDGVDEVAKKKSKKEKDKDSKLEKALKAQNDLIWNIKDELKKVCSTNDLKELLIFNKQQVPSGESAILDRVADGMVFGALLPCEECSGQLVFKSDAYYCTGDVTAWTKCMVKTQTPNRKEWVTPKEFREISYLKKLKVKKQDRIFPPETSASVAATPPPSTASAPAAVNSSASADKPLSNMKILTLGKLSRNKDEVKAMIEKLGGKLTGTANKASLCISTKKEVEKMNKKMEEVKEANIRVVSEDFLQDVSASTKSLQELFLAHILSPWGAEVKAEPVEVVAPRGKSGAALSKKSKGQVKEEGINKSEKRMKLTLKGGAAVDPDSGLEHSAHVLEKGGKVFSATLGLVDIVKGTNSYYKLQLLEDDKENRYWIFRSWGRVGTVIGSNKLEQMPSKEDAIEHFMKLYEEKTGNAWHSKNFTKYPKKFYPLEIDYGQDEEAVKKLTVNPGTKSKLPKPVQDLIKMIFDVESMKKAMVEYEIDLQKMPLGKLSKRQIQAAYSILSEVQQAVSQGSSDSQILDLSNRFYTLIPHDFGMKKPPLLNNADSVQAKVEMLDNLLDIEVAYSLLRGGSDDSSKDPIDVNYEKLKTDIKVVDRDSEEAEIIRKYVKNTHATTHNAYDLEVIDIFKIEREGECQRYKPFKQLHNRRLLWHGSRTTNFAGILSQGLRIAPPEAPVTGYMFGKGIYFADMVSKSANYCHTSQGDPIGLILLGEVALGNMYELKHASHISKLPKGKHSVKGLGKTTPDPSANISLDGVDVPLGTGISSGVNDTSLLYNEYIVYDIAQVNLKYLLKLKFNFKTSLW

PARP2 = PARP2 (Mus musculus (Mouse), UniProt O88554); test: PARP2 autoparsylation biochemical assay, LC/MS detection of nicotinamide; conditions: read-out: PARP2 Ic50, 20 nM enzyme, 250 μM NAD+, 60 min room temperature
PARP2, sequence (O88554 whole entry, the tested form may be a part): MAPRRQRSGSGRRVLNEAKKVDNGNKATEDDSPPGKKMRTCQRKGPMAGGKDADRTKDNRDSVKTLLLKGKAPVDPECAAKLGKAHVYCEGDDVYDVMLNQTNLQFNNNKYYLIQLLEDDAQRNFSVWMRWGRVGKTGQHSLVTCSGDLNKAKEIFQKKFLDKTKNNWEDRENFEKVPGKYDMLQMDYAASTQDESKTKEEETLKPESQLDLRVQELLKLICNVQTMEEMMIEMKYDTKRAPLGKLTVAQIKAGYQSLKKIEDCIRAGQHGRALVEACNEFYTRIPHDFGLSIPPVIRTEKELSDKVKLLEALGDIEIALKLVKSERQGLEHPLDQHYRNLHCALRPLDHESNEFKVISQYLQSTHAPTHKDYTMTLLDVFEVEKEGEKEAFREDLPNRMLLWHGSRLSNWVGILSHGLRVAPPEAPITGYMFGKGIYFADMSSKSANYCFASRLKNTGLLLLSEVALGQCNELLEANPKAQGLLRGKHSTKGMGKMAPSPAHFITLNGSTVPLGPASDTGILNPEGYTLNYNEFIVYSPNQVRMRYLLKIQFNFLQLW

[3] = target: tankyrase 2 protein PARP domain, TNKS2P (GST-tagged) (Homo sapiens (Human), UniProt Q9H2K2); test: TNKS2 autoparsylation (AP) biochemical assay, LC/MS detection of nicotinamide; conditions: 20 nM enzyme, 250 μM NAD+, 60 min room temperature
tankyrase 2 protein PARP domain, TNKS2P (GST-tagged), sequence (Q9H2K2 959-1164): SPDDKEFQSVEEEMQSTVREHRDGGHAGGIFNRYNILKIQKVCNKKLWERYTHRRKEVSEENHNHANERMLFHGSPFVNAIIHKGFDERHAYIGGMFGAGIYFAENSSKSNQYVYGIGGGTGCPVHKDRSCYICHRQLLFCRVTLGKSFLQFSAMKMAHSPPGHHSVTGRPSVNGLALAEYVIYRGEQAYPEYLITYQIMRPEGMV

[4] = tested on: Wnt ligand-induced signaling; test: Wnt-responsive Super-TOpFlash (STF) luciferase reporter gene assay in HEK293 cells; assay type: cell-based; conditions: Homo sapiens, Wnt3A condition medium induced
Procedure: Compound activity in inhibiting Wnt ligand-induced signaling was measured using a Wnt-responsive Super-TOpFlash (STF) luciferase reporter gene assay in HEK293 cells. On day 1 of the assay, cells were plated at a density of 8000 cells per well of 384-well plate in 25 μl medium containing 5% fetal bovine serum (FBS). On the second day, […] condition medium (CM) produced from mouse L cells was added to the cells to induce Wnt signaling, followed by addition of 5 μL of compounds each well in 10-point serial dilution. On the third day, the luciferase activity was measured by the Bright-Glo™ Luciferase Assay System following manufacture's protocol (Promega, E2620). The Inhibition was calculated as: (Maximum Wnt-induced signaling−Sample)/(Maximum Wnt-induced signaling−Background)*100. “Maximum Wnt-induced signaling” is the STF signal level induced by 20% Wnt3A CM without compound; and “Background” is the STF signal level without the addition of Wnt3A CM or compound.

human tankyrase 1 PARP catalytic domain, TNKS1P (GST-tagged), sequence (O95271 1112-1317): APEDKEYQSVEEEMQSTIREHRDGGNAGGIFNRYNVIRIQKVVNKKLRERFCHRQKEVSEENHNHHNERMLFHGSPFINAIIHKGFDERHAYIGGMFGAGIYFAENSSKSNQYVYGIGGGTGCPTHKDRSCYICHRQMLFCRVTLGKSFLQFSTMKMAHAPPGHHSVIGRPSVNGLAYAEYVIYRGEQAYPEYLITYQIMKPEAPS

Row | Compound | IC50 [1] | AC50 (Axin2 protein) | IC50 [2] | IC50 (Human PARP1) | IC50 (PARP2) | IC50 [3] | IC50 [4] | AC50 (Axin2 protein; Homo sapiens) | IC50 ([2]; Homo sapiens, 72 h)
1 | COc1ccc(C(=O)C2CCN([C@@H]3CCN(CC(=O)Nc4nnc5n4CCS5)C3=O)CC2)cc1 (single isomer, unassigned) [Example 34] | 38 ± 1 nM | 78 ± 6 nM | 49 nM | > 19 µM | 6.3 ± 0.7 µM | – | – | – | –
2 | COc1ccc(C(=O)C2CCN(C3CCN(Cc4nc5c(c(=O)[nH]4)COCC5)C3=O)CC2)cc1 (stereo not shown) [Example 2, 2-{3-[4-(4-Methoxy-benzoyl)-piperidin-1-yl]-2-oxo-pyrrolidin-1-ylmethyl}-3,5,7,8-tetrahydro-pyrano[4,3-d]pyrimidin-4-one] | 33 ± 7 nM | – | – | 9.3 ± 1.8 µM | 5.4 ± 0.4 µM | 15 ± 4 nM | 1.3 ± 0.8 nM | 31.3 ± 3.6 nM | 30 ± 5 nM
3 | COc1ccc(C(=O)C2CCN([C@H]3CCN(Cc4nc5c(c(=O)[nH]4)COCC5)C3=O)CC2)cc1 [Example 3, 2-{(S)-3-[4-(4-Methoxy-benzoyl)-piperidin-1-yl]-2-oxo-pyrrolidin-1-ylmethyl}-3,5,7,8-tetrahydro-pyrano[4,3-d]pyrimidin-4-one] | 12.8 ± 2.6 nM | – | – | 21 ± 8.7 µM | 4.8 ± 0.6 µM | 9.5 ± 0.7 nM | 1.1 ± 0.4 nM | 6.3 ± 1.3 nM | 12 ± 3 nM
4 | COc1ccc(C(=O)C2CCN(C3CCN(Cc4nc5c(cnn5C)c(=O)[nH]4)C3=O)CC2)cc1 (stereo not shown) [Example 6, 6-{3-[4-(4-Methoxy-benzoyl)-piperidin-1-yl]-2-oxo-pyrrolidin-1-ylmethyl}-1-methyl-1,3a,5,7a-tetrahydro-pyrazolo[3,4-d]pyrimidin-4-one] | 22 ± 4 nM | – | – | > 19 µM | > 19 µM | 25 ± 4 nM | 5.9 ± 1.5 nM | 23 ± 3 nM | 43 nM
5 | O=C(c1ccc(Cl)cc1)C1CCN(C2CCN(Cc3nc4c(c(=O)[nH]3)COCC4)C2=O)CC1 (stereo not shown) [Example 9, 2-{3-[4-(4-Chloro-benzoyl)-piperidin-1-yl]-2-oxo-pyrrolidin-1-ylmethyl}-3,5,7,8-tetrahydro-pyrano[4,3-d]pyrimidin-4-one] | 30 ± 2 nM | – | – | 16.6 ± 4.2 µM | 4.62 ± 0.95 µM | 23 ± 1 nM | 3 ± 3 nM | 52 ± 4 nM | 60 nM
6 | O=C(c1ccc(F)cc1)C1CCN(C2CCN(Cc3nc4c(c(=O)[nH]3)COCC4)C2=O)CC1 (stereo not shown) [Example 10, 2-{3-[4-(4-Fluoro-benzoyl)-piperidin-1-yl]-2-oxo-pyrrolidin-1-ylmethyl}-3,5,7,8-tetrahydro-pyrano[4,3-d]pyrimidin-4-one] | 27 ± 1 nM | – | – | 23.6 ± 2.7 µM | 9.2 ± 2.2 µM | 6 ± 1 nM | 10 ± 1 nM | 257 ± 67 nM | 291 nM
7 | O=C(c1ccc(F)cc1)C1CCN([C@H]2CCN(Cc3nc4c(c(=O)[nH]3)COCC4)C2=O)CC1 [Example 11, 2-{(S)-3-[4-(4-Fluoro-benzoyl)-piperidin-1-yl]-2-oxo-pyrrolidin-1-ylmethyl}-3,5,7,8-tetrahydro-pyrano[4,3-d]pyrimidin-4-one] | 37 ± 5 nM | – | – | 37.4 ± 0.3 µM | 10.2 ± 4.2 µM | 17 ± 2 nM | 5 ± 5 nM | 132 ± 22 nM | 301 nM
8 | COc1ccc(C(=O)C2CCN([C@H]3CCN(Cc4nc5c(c(=O)[nH]4)COCC5)C3=O)CC2)cc1C [Example 13, 2-{(S)-3-[4-(4-Methoxy-3-methyl-benzoyl)-piperidin-1-yl]-2-oxo-pyrrolidin-1-ylmethyl}-3,5,7,8-tetrahydro-pyrano[4,3-d]pyrimidin-4-one] | 6 ± 1 nM | – | – | 24 ± 3 µM | 4 ± 1.1 µM | 3 ± 1 nM | 1.2 ± 1 nM | 2.1 ± 0.1 nM | 3 nM
9 | COc1ccc(C(=O)C2CCN(C3CCN(Cc4nc5c(c(=O)[nH]4)CCC5)C3=O)CC2)cc1 (stereo not shown) [Example 21, 2-((3-(4-(4-methoxybenzoyl)piperidin-1-yl)-2-oxopyrrolidin-1-yl)methyl)-6,7-dihydro-3H-cyclopenta[d]pyrimidin-4(5H)-one] | 34 ± 1 nM | – | – | 29.6 ± 2.8 µM | 10.7 ± 0.2 µM | 17 ± 2 nM | 1.1 ± 0.17 nM | 7 ± 2 nM | 18 nM
10 | CCc1cc(=O)[nH]c(CN2CCC(N3CCC(C(=O)c4ccc(OC)cc4)CC3)C2=O)n1 (stereo not shown) [Example 24, 6-Ethyl-2-{3-[4-(4-methoxy-benzoyl)-piperidin-1-yl]-2-oxo-pyrrolidin-1-ylmethyl}-3H-pyrimidin-4-one] | 115 ± 4 nM | – | – | > 19 µM | > 19 µM | 53 ± 5 nM | 10.4 ± 2.3 nM | 104 ± 15 nM | 183 nM
11 | COc1ccc(C(=O)C2CCN(C3CCN(Cc4ncc(C)c(=O)[nH]4)C3=O)CC2)cc1 (stereo not shown) [Example 25, 2-{3-[4-(4-Methoxy-benzoyl)-piperidin-1-yl]-2-oxo-pyrrolidin-1-ylmethyl}-5-methyl-3H-pyrimidin-4-one] | 72 ± 2 nM | – | – | > 19 µM | > 19 µM | 36 ± 6 nM | 3.4 ± 1.5 nM | 46 ± 3 nM | 117 nM
12 | COc1ccc(C(=O)C2CCN(C3CCN(Cc4nc(C)c(C)c(=O)[nH]4)C3=O)CC2)cc1 (stereo not shown) [Example 26, 2-{3-[4-(4-Methoxy-benzoyl)-piperidin-1-yl]-2-oxo-pyrrolidin-1-ylmethyl}-5,6-dimethyl-3H-pyrimidin-4-one] | 47 ± 2 nM | – | – | > 19 µM | > 19 µM | 26 ± 1 nM | 4.1 ± 2.1 nM | 21 ± 3 nM | 43 nM
13 | COc1ccc(C(=O)C2CCN([C@@H]3CCN(Cc4nc5ccccc(=O)c5[nH]4)C3=O)CC2)cc1 [Example 31, 2-{(R)-3-[4-(4-Methoxy-benzoyl)-piperidin-1-yl]-2-oxo-pyrrolidin-1-ylmethyl}-3H-cycloheptaimidazol-4-one] | 1080 ± 10 nM | – | – | – | 10.1 ± 2.6 µM | – | 65 ± 14 nM | 89 ± 2 nM | 85 nM
14 | COc1ccc(C(=O)C2CCN(C3CCN(CC(=O)Nc4nnc5n4CCS5)C3=O)CC2)cc1 (stereo not shown) [Example 32, N-(5,6-dihydrothiazolo[2,3-c][1,2,4]triazol-3-yl)-2-(3-(4-(4-methoxybenzoyl)piperidin-1-yl)-2-oxopyrrolidin-1-yl)acetamide] | 43 ± 1 nM | – | – | > 19 µM | 5.09 ± 0.12 µM | – | – | 131 ± 8 nM | 76 nM
15 | COc1ccc(C(=O)C2CCN(C3CCN(CC(=O)Nc4nnc5ccccn45)C3=O)CC2)cc1 (stereo not shown) [Example 35, N-([1,2,4]triazolo[4,3-a]pyridin-3-yl)-2-(3-(4-(4-methoxybenzoyl)piperidin-1-yl)-2-oxopyrrolidin-1-yl)acetamide] | 2470 ± 30 nM | – | – | – | – | 636 ± 36 nM | 940 ± 70 nM | 1890 ± 160 nM | 2630 nM
